# Reference: ChEMBL document CHEMBL4308854, “Novel indole-thiazolidinone conjugates: Design, synthesis and whole-cell phenotypic evaluation as a novel class of antimicrobial agents” (Eur J Med Chem, 2018)
# Key:
# [1] = tested on: Mycobacterium tuberculosis; experiment: Antitubercular activity against Mycobacterium tuberculosis RCMB 010126 clinical isolate after 4 days by microplate alamar blue assay; format: functional; settings: for MIC: Mycobacterium tuberculosis, RCMB 010126, 96 h
# Staphylococcus aureus [2] = experiment: Antibacterial activity against Staphylococcus aureus RCMB 010028 assessed as diameter of zone inhibition after 24 hrs by agar well diffusion assay; format: functional
# Staphylococcus aureus [3] = experiment: Antibacterial activity against Staphylococcus aureus RCMB 010028 after 24 hrs by serial dilution method; format: functional; settings: RCMB 010028, 24 h
# Pseudomonas aeruginosa [4] = experiment: Antibacterial activity against Pseudomonas aeruginosa RCMB 010043 assessed as diameter of zone inhibition after 24 hrs by agar well diffusion assay; format: functional
# Pseudomonas aeruginosa [5] = experiment: Antibacterial activity against Pseudomonas aeruginosa RCMB 010043 after 24 hrs by serial dilution method; format: functional; settings: RCMB 010043, 24 h
# Escherichia coli = experiment: Antibacterial activity against Escherichia coli RCMB 010052 after 24 hrs by serial dilution method; format: functional; settings: RCMB 010052, 24 h
# Candida albicans = experiment: Antifungal activity against Candida albicans RCMB 05036 assessed as diameter of zone inhibition after 48 hrs by agar well diffusion assay; format: functional
# [6] = Cytotoxicity against mouse RAW264.7 cells; format: cell-based
# [7] = Selectivity index, ratio of GI50 for mouse RAW264.7 cells to MIC for Mycobacterium aurum infected in mouse RAW264.7 cells; format: toxicity, cell-based; settings: read-out: Selectivity Index
# [8] = Selectivity index, ratio of IC50 for human WI38 cells to MIC for Mycobacterium tuberculosis RCMB 010126 clinical isolate; format: toxicity; settings: read-out: Selectivity Index
# K562 = experiment: Growth inhibition of human K562 cells assessed as cell growth at 10^-5 M incubated for 48 hrs by sulforhodamine B assay relative to control; format: cell-based; parameters: scale not given: the % may be the effect or the level left; settings: k562, 48 h, 10 µM
# SR = experiment: Growth inhibition of human SR cells assessed as cell growth at 10^-5 M incubated for 48 hrs by sulforhodamine B assay relative to control; format: cell-based; parameters: scale not given: the % may be the effect or the level left; settings: 10 µM
# NCI-H460 = experiment: Growth inhibition of human NCI-H460 cells assessed as cell growth at 10^-5 M incubated for 48 hrs by sulforhodamine B assay relative to control; format: cell-based; parameters: scale not given: the % may be the effect or the level left; settings: nci-h460, 48 h, 10 µM
# HCT-15 = experiment: Growth inhibition of human HCT15 cells assessed as cell growth at 10^-5 M incubated for 48 hrs by sulforhodamine B assay relative to control; format: cell-based; parameters: scale not given: the % may be the effect or the level left; settings: hct-15, 48 h, 10 µM
# HT-29 = experiment: Growth inhibition of human HT-29 cells assessed as cell growth at 10^-5 M incubated for 48 hrs by sulforhodamine B assay relative to control; format: cell-based; parameters: scale not given: the % may be the effect or the level left; settings: ht-29, 48 h, 10 µM
# KM12 = experiment: Growth inhibition of human KM12 cells assessed as cell growth at 10^-5 M incubated for 48 hrs by sulforhodamine B assay relative to control; format: cell-based; parameters: scale not given: the % may be the effect or the level left; settings: km12, 48 h, 10 µM
# SF-268 = experiment: Growth inhibition of human SF268 cells assessed as cell growth at 10^-5 M incubated for 48 hrs by sulforhodamine B assay relative to control; format: cell-based; parameters: scale not given: the % may be the effect or the level left; settings: sf-268, 48 h, 10 µM
# SNB-75 = experiment: Growth inhibition of human SNB75 cells assessed as cell growth at 10^-5 M incubated for 48 hrs by sulforhodamine B assay relative to control; format: cell-based; parameters: scale not given: the % may be the effect or the level left; settings: snb-75, 48 h, 10 µM
# Malme-3M = experiment: Growth inhibition of human MALME-3M cells assessed as cell growth at 10^-5 M incubated for 48 hrs by sulforhodamine B assay relative to control; format: cell-based; parameters: scale not given: the % may be the effect or the level left; settings: 10 µM
# SK-MEL-2 = experiment: Growth inhibition of human SK-MEL-2 cells assessed as cell growth at 10^-5 M incubated for 48 hrs by sulforhodamine B assay relative to control; format: cell-based; parameters: scale not given: the % may be the effect or the level left; settings: sk-mel-2, 48 h, 10 µM
# SK-MEL-28 = experiment: Growth inhibition of human SK-MEL-28 cells assessed as cell growth at 10^-5 M incubated for 48 hrs by sulforhodamine B assay relative to control; format: cell-based; parameters: scale not given: the % may be the effect or the level left; settings: sk-mel-28, 48 h, 10 µM
# SK-MEL-5 = experiment: Growth inhibition of human SK-MEL-5 cells assessed as cell growth at 10^-5 M incubated for 48 hrs by sulforhodamine B assay relative to control; format: cell-based; parameters: scale not given: the % may be the effect or the level left; settings: sk-mel-5, 48 h, 10 µM
# IGROV-1 = experiment: Growth inhibition of human IGROV1 cells assessed as cell growth at 10^-5 M incubated for 48 hrs by sulforhodamine B assay relative to control; format: cell-based; parameters: scale not given: the % may be the effect or the level left; settings: igrov-1, 48 h, 10 µM
# OVCAR-4 = experiment: Growth inhibition of human OVCAR4 cells assessed as cell growth at 10^-5 M incubated for 48 hrs by sulforhodamine B assay relative to control; format: cell-based; parameters: scale not given: the % may be the effect or the level left; settings: ovcar-4, 48 h, 10 µM
# OVCAR-8 = experiment: Growth inhibition of human OVCAR8 cells assessed as cell growth at 10^-5 M incubated for 48 hrs by sulforhodamine B assay relative to control; format: cell-based; parameters: scale not given: the % may be the effect or the level left; settings: ovcar-8, 48 h, 10 µM
# NCI/ADR-RES = experiment: Growth inhibition of human NCI/ADR-RES cells assessed as cell growth at 10^-5 M incubated for 48 hrs by sulforhodamine B assay relative to control; format: cell-based; parameters: scale not given: the % may be the effect or the level left; settings: 10 µM
# SK-OV-3 = experiment: Growth inhibition of human SKOV3 cells assessed as cell growth at 10^-5 M incubated for 48 hrs by sulforhodamine B assay relative to control; format: cell-based; parameters: scale not given: the % may be the effect or the level left; settings: sk-ov-3, 48 h, 10 µM
# 786-0 = experiment: Growth inhibition of human 786-0 cells assessed as cell growth at 10^-5 M incubated for 48 hrs by sulforhodamine B assay relative to control; format: cell-based; parameters: scale not given: the % may be the effect or the level left; settings: 786-0, 48 h, 10 µM
# A498 = experiment: Growth inhibition of human A498 cells assessed as cell growth at 10^-5 M incubated for 48 hrs by sulforhodamine B assay relative to control; format: cell-based; parameters: scale not given: the % may be the effect or the level left; settings: a498, 48 h, 10 µM
# ACHN = experiment: Growth inhibition of human ACHN cells assessed as cell growth at 10^-5 M incubated for 48 hrs by sulforhodamine B assay relative to control; format: cell-based; parameters: scale not given: the % may be the effect or the level left; settings: 10 µM
# SN12C = experiment: Growth inhibition of human SN12C cells assessed as cell growth at 10^-5 M incubated for 48 hrs by sulforhodamine B assay relative to control; format: cell-based; parameters: scale not given: the % may be the effect or the level left; settings: 10 µM
# TK-10 = experiment: Growth inhibition of human TK10 cells assessed as cell growth at 10^-5 M incubated for 48 hrs by sulforhodamine B assay relative to control; format: cell-based; parameters: scale not given: the % may be the effect or the level left; settings: tk-10, 48 h, 10 µM
# PC-3 = experiment: Growth inhibition of human PC3 cells assessed as cell growth at 10^-5 M incubated for 48 hrs by sulforhodamine B assay relative to control; format: cell-based; parameters: scale not given: the % may be the effect or the level left; settings: pc-3, 48 h, 10 µM
# MCF7 = experiment: Growth inhibition of human MCF7 cells assessed as cell growth at 10^-5 M incubated for 48 hrs by sulforhodamine B assay relative to control; format: cell-based; parameters: scale not given: the % may be the effect or the level left; settings: mcf7, 48 h, 10 µM
# Hs-578T = experiment: Growth inhibition of human Hs 578T cells assessed as cell growth at 10^-5 M incubated for 48 hrs by sulforhodamine B assay relative to control; format: cell-based; parameters: scale not given: the % may be the effect or the level left; settings: 10 µM
# T47D = experiment: Growth inhibition of human T47D cells assessed as cell growth at 10^-5 M incubated for 48 hrs by sulforhodamine B assay relative to control; format: cell-based; parameters: scale not given: the % may be the effect or the level left; settings: 10 µM
# MDA-MB-468 = experiment: Growth inhibition of human MDA-MB-468 cells assessed as cell growth at 10^-5 M incubated for 48 hrs by sulforhodamine B assay relative to control; format: cell-based; parameters: scale not given: the % may be the effect or the level left; settings: mda-mb-468, 48 h, 10 µM
smiles,measurement,setting,value
CCOC(=O)c1sc(/N=C2\NC(=O)/C(=C3/C(=O)N(Cc4ccccc4)c4ccc(Cl)cc43)S2)nc1C,inhibition (INH),[1],75.32%
same,MIC,[1],0.39 µg/mL
same,diameter of the inhibition zone (DIZ),Staphylococcus aureus [2],22.5 mm
same,MIC,Staphylococcus aureus [3],0.98 µg/mL
same,diameter of the inhibition zone (DIZ),Pseudomonas aeruginosa [4],22.3 mm
same,MIC,Pseudomonas aeruginosa [5],1.95 µg/mL
same,MIC,Escherichia coli,0.98 µg/mL
same,diameter of the inhibition zone (DIZ),Candida albicans,21.7 mm
same,GI50,[6],62.5 µg/mL
same,selectivity ratio,[7],1.25
same,selectivity ratio,[8],133
same,Activity,K562,101.93%
same,Activity,SR,102.18%
same,Activity,NCI-H460,101.98%
same,Activity,HCT-15,100.31%
same,Activity,HT-29,100.13%
same,Activity,KM12,101.95%
same,Activity,SF-268,93.91%
same,Activity,SNB-75,90.57%
same,Activity,Malme-3M,102.79%
same,Activity,SK-MEL-2,100.66%
same,Activity,SK-MEL-28,113.38%
same,Activity,SK-MEL-5,101.5%
same,Activity,IGROV-1,105.63%
same,Activity,OVCAR-4,110.06%
same,Activity,OVCAR-8,103.48%
same,Activity,NCI/ADR-RES,101.26%
same,Activity,SK-OV-3,103.42%
same,Activity,786-0,103.02%
same,Activity,A498,104.48%
same,Activity,ACHN,110.67%
same,Activity,SN12C,102.35%
same,Activity,TK-10,97.92%
same,Activity,PC-3,91.84%
same,Activity,MCF7,97.06%
same,Activity,Hs-578T,94.4%
same,Activity,T47D,96.84%
same,Activity,MDA-MB-468,108.31%
CC(=O)c1sc(/N=C2\NC(=O)/C(=C3/C(=O)N(C)c4ccc(Cl)cc43)S2)nc1C,inhibition (INH),[1],76.35%
same,MIC,[1],0.39 µg/mL
same,diameter of the inhibition zone (DIZ),Staphylococcus aureus [2],22.4 mm
same,MIC,Staphylococcus aureus [3],0.98 µg/mL
same,diameter of the inhibition zone (DIZ),Pseudomonas aeruginosa [4],22.2 mm
same,MIC,Pseudomonas aeruginosa [5],0.98 µg/mL
same,MIC,Escherichia coli,0.49 µg/mL
same,diameter of the inhibition zone (DIZ),Candida albicans,24.1 mm
same,GI50,[6],125 µg/mL
same,selectivity ratio,[7],5
same,selectivity ratio,[8],50
same,Activity,K562,100.75%
same,Activity,SR,115.03%
same,Activity,NCI-H460,113.18%
same,Activity,HCT-15,101.97%
same,Activity,HT-29,98.45%
same,Activity,KM12,94.43%
same,Activity,SF-268,98.04%
same,Activity,SNB-75,104.77%
same,Activity,Malme-3M,85.96%
same,Activity,SK-MEL-2,99.78%
same,Activity,SK-MEL-28,99.13%
same,Activity,SK-MEL-5,97.1%
same,Activity,IGROV-1,94.36%
same,Activity,OVCAR-4,94.35%
same,Activity,OVCAR-8,117.64%
same,Activity,NCI/ADR-RES,99.92%
same,Activity,SK-OV-3,117.19%
same,Activity,786-0,106.86%
same,Activity,A498,104.41%
same,Activity,ACHN,104.32%
same,Activity,SN12C,96.85%
same,Activity,TK-10,118.37%
same,Activity,PC-3,96.23%
same,Activity,MCF7,86.13%
same,Activity,Hs-578T,115.73%
same,Activity,T47D,106.34%
same,Activity,MDA-MB-468,94.2%
